Test results as given in paper PMC7150891, “Mertansine Inhibits mRNA Expression and Enzyme Activities of Cytochrome P450s and Uridine 5′-Diphospho-Glucuronosyltransferases in Human Hepatocytes and Liver Microsomes” (Pharmaceutics, 2020).

Experiments:
[1] = test system: UGT1A1 mRNA; test: UGT1A1 mRNA level in human hepatocytes after 48 h treatment (RT-PCR); details: human, IC50, suppression of UGT1A1 mRNA expression, 1.25–2500 nM
[2] = test system: CYP3A4 mRNA; test: in vitro; details: human, hepatocytes, IC50, suppression of CYP3A4 mRNA expression, 1.25–2500 nM
[3] = test system: CYP2B6 mRNA; test: CYP2B6 mRNA level in human hepatocytes after 48 h treatment (RT-PCR); assay type: cell-based; details: Mean ± SD of three human hepatocyte lots, 48 h, 1.25–2500 nM, read-out: IC50, suppression of CYP2B6 mRNA expression
Text: (§1) 12.5 (Systat Software, Inc.; San Jose, CA, USA). […] 1.1 (Systat Software, Inc.).

[4] = test system: CYP2B6 mRNA (suppression of expression); test: as above; assay type: cell-based; details: 1.25–2500 nM
Text: as §1

[5] = test system: CYP2D6; design: method as in PMID 25048520, PMID 22752008; details: human liver microsomes, competitive; read-out: Ki, CYP2D6-mediated dextromethorphan O-demethylation; cited from earlier work
[6] = test system: CYP1A2 mRNA (suppression of expression); test: CYP1A2 mRNA level in human hepatocytes after 48 h treatment (RT-PCR); assay type: cell-based; details: 1.25–2500 nM
Text: as §1

[7] = Mean ± SD of three human hepatocyte lots, 48 h
[8] = human hepatocytes Lot 319, 48 h
[9] = human hepatocytes Lot 321, 48 h
[10] = human hepatocytes Lot 361, 48 h

Structure (SMILES): COc1cc2cc(c1Cl)N(C)C(=O)CC(OC(=O)C(C)N(C)C(=O)CCS)C1(C)OC1C(C)C1CC(O)(NC(=O)O1)C(OC)C=CC=C(C)C2 (centres unmarked) [mertansine, Mertansine]
- IC50 at 48 h [1, 7]: 857 ± 782 nM
- IC50 at 48 h [1, 8]: 784 nM
- IC50 at 48 h [1, 9]: 113 nM
- IC50 at 48 h [1, 10]: 1670 nM
- IC50 [2, 7]: 161 ± 167 nM
- IC50 [2, 8]: 344 nM
- IC50 [2, 9]: 120 nM
- IC50 [2, 10]: 16.8 nM
- IC50 at 48 h [3]: 36.8 ± 18.3 nM
- IC50 at 48 h [4, 8]: 25 nM
- IC50 at 48 h [4, 9]: 57.8 nM
- IC50 at 48 h [4, 10]: 27.6 nM
- Ki [5]: 14 µM
- IC50 at 48 h [6, 7]: 93.7 ± 109 nM
- IC50 at 48 h [6, 8]: 220 nM
- IC50 at 48 h [6, 9]: 34.3 nM
- IC50 at 48 h [6, 10]: 27.3 nM
